Results published in patent US20260078130A1, “NAMPT MODULATORS, PREPARATIONS, AND USES THEREOF” (SIRONAX LTD., priority 2022, published 2026).
Where two headings read alike, the source gives them in different places.

Key:
[1] = target: T1, human enzyme NAMPT (full length) (Homo sapiens, UniProt P43490); assay: NMN fluorescence biochemical assay (stimulation of NMN synthesis by NAMPT); details: for EC50: concentration giving half-maximal activation, read-out: Enzymatic EC50; for Enzymatic Emax: fold change of maximal activation compared to DMSO
T1 construct: human enzyme NAMPT (full length)
Outline: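 Full-length human NAMPT (100 nM) was preincubated 15 min at 37 °C with compound in 50 mM Tris-HCl pH 7.5, 10 mM MgCl2, 2 mM DTT, then reacted 1 h at 37 °C with 50 μM NAM, 100 μM PRPP, 4 mM ATP (stated solution concentrations). NMN was derivatised with acetophenone/KOH then formic acid and read at Ex/Em 382/445 nm; EC50 and Emax (fold over DMSO) reported.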

[2] = tested on: endogenous NAMPT in U2OS cells; assay: Cellular NAD+ modulation assay (NAD/NADH-Glo, U2OS cells); format: cell-based; details: Homo sapiens; for maximal fold induction: read-out: Cellular Emax
Outline: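 Endogenous NAMPT stimulation in U2OS cells treated with compound dilution series for 24 h at 37 °C. Cells lysed with DTAB base, acid-treated 15 min at 60 °C, neutralized, NAD+ read by NAD/NADH-Glo luminescence after 40 min at room temperature. EC50 and Emax (fold over DMSO) derived.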

[3] = NMN synthesis by purified human NAMPT (100 nM)
[4] = 24 hours incubation with compound
[5] = NMN fluorescence assay, purified human NAMPT 100 nM
[6] = 24 hours incubation, cellular NAD+

T1 sequence (P43490 whole entry): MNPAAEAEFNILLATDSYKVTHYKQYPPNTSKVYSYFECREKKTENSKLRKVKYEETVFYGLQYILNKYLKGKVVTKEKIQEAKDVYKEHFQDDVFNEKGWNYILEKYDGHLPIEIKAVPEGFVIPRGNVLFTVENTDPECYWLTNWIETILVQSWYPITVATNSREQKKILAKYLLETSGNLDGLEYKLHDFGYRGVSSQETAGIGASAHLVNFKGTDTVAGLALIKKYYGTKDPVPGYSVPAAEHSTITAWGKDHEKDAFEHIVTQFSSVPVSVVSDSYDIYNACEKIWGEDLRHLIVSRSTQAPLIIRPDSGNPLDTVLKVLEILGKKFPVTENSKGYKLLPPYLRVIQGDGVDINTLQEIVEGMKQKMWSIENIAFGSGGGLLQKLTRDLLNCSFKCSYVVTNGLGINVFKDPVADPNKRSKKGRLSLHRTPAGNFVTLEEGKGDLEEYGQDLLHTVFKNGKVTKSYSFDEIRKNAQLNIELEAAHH

Row | SMILES | EC50 [1, 3] | Enzymatic Emax [1] | EC50 [2, 4] | EC50 [1, 5] | EC50 [2, 6] | maximal fold induction [2, 4] | maximal fold induction [2, 6]
1 | O=C1c2ccccc2C(Cc2ncccc2Br)N1CC#Cc1cn[nH]n1 (stereo not shown) [Compound 417, 2-(3-(2H-1,2,3-triazol-4-yl)prop-2-yn-1-yl)-3-((3-bromopyridin-2-yl)methyl) isoindolin-1-one] | – | B (3≥B>2) | – | < 500 nM | < 500 nM | – | > 1.5
2 | Cn1nc(Cl)c(CC2c3ccccc3C(=O)N2Cc2ccc3[nH]nnc3c2)n1 (stereo not shown) [Compound 335, 2-((1H-benzo[d][1,2,3]triazol-5-yl)methyl)-3-((5-chloro-2-methyl-2H-1,2,3-triazol-4-yl)methyl)isoindolin-1-one] | – | A (A>3) | – | 500 to 5000 nM | < 500 nM | – | > 1.5
3 | Cc1cncc(C#N)c1CC1c2ccccc2C(=O)N1CC1CC2(CNC(=O)O2)C1 (stereo not shown) [Compound 492, 5-methyl-4-((3-oxo-2-((6-oxo-5-oxa-7-azaspiro[3.4]octan-2-yl)methyl)isoindolin-1-yl)methyl)nicotinonitrile] | – | B (3≥B>2) | – | < 500 nM | < 500 nM | – | > 1.5
4 | Cn1nc(C2CNC2)c(Cl)c1CC1c2ccccc2C(=O)N1Cc1ccc2[nH]nnc2c1 (stereo not shown) [Compound 438, 2-((1H-benzo[d][1,2,3]triazol-5-yl)methyl)-3-((3-(azetidin-3-yl)-4-chloro-1-methyl-1H-pyrazol-5-yl)methyl)isoindolin-1-one] | – | B (3≥B>2) | – | < 500 nM | 500 to 5000 nM | – | > 1.5
5 | Cn1ncc(Cl)c1CC1c2ccccc2C(=O)N1Cc1ccc2[nH]nnc2c1 (stereo not shown) [Compound 279, 2-((1H-benzo[d][1,2,3]triazol-5-yl)methyl)-3-((4-chloro-1-methyl-1H-pyrazol-5-yl)methyl) isoindolin-1-one] | < 500 nM | B (3≥B>2) | < 500 nM | – | – | > 1.5 | –
6 | Cn1ncc(Cl)c1CC1c2cc(Cl)cc(F)c2C(=O)N1CC1CC2(CNC(=O)O2)C1 (stereo not shown) [Compound 510, 2-((6-chloro-1-((4-chloro-1-methyl-1H-pyrazol-5-yl)methyl)-4-fluoro-3-oxoisoindolin-2-yl)methyl)-5-oxa-7-azaspiro[3.4]octan-6-one] | – | A (A>3) | – | < 500 nM | < 500 nM | – | > 1.5
7 | Cn1ncc(Cl)c1CC1c2ccccc2C(=O)N1Cc1c[nH]c(=O)s1 (stereo not shown) [Compound 592, 5-((1-((4-chloro-1-methyl-1H-pyrazol-5-yl)methyl)-3-oxoisoindolin-2-yl)methyl)thiazol-2(3H)-one] | – | A (A>3) | – | < 500 nM | < 500 nM | – | > 1.5
8 | Cn1ncc(Cl)c1CC1c2c(F)cccc2C(=O)N1CC1CC2(CNC(=O)O2)C1 (stereo not shown) [Compound 511, 2-((3-((4-chloro-1-methyl-1H-pyrazol-5-yl)methyl)-4-fluoro-1-oxoisoindolin-2-yl)methyl)-5-oxa-7-azaspiro[3.4]octan-6-one] | – | A (A>3) | – | 500 to 5000 nM | < 500 nM | – | 1.2 to 1.5
9 | CC1c2cc(NC3CCCC3)ccc2C(=O)N1Cc1ccc2[nH]c(=O)oc2c1 (stereo not shown) [Compound 81, 6-((5-(cyclopentylamino)-3-methyl-1-oxoisoindolin-2-yl)methyl)benzo[d]oxazol-2(3H)-one] | ≥ 5000 nM | A (A>3) | 500 to 5000 nM | – | – | 1.2 to 1.5 | –
10 | Cc1ccn(C)c(=O)c1CC1c2ccccc2C(=O)N1CC1CC2(CNC(=O)O2)C1 (stereo not shown) [Compound 481, 2-((1-((1,4-dimethyl-2-oxo-1,2-dihydropyridin-3-yl)methyl)-3-oxoisoindolin-2-yl)methyl)-5-oxa-7-azaspiro[3.4]octan-6-one] | – | B (3≥B>2) | – | 500 to 5000 nM | 500 to 5000 nM | – | > 1.5
11 | O=C1c2ccccc2C(Cc2ncccc2Br)N1Cc1cc2nn[nH]c2cc1F (stereo not shown) [Compound 271, 3-((3-bromopyridin-2-yl)methyl)-2-((6-fluoro-1H-benzo[d][1,2,3]triazol-5-yl)methyl) isoindolin-1-one] | 500 to 5000 nM | A (A>3) | 500 to 5000 nM | – | – | > 1.5 | –
12 | Cn1nc(CN2CCC2)c(Cl)c1CC1c2ccccc2C(=O)N1CC1CC2(CNC(=O)O2)C1 (stereo not shown) [Compound 508, 2-((1-((3-(azetidin-1-ylmethyl)-4-chloro-1-methyl-1H-pyrazol-5-yl)methyl)-3-oxoisoindolin-2-yl)methyl)-5-oxa-7-azaspiro[3.4]octan-6-one] | – | B (3≥B>2) | – | < 500 nM | 500 to 5000 nM | – | > 1.5
13 | Cn1ncc(Cl)c1CC1c2cc(N3CCOCC3)ccc2C(=O)N1Cc1ccc2[nH]nnc2c1 (stereo not shown) [Compound 324, 2-((1H-benzo[d][1,2,3]triazol-5-yl)methyl)-3-((4-chloro-1-methyl-1H-pyrazol-5-yl)methyl)-5-morpholinoisoindolin-1-one] | – | A (A>3) | – | < 500 nM | < 500 nM | – | > 1.5
14 | Cn1ncc(Cl)c1CC1c2cc(F)ccc2C(=O)N1Cc1ccc2[nH]nnc2c1 (stereo not shown) [Compound 344, 2-((1H-benzo[d][1,2,3]triazol-5-yl)methyl)-3-((4-chloro-1-methyl-1H-pyrazol-5-yl)methyl)-5-fluoroisoindolin-1-one] | – | A (A>3) | – | 500 to 5000 nM | < 500 nM | – | > 1.5
15 | COc1ccc(CN2C(=O)c3ccccc3C2Cc2c(Cl)ccn(C)c2=O)cn1 (stereo not shown) [Compound 625, 3-((4-chloro-1-methyl-2-oxo-1,2-dihydropyridin-3-yl)methyl)-2-((6-methoxypyridin-3-yl)methyl)isoindolin-1-one] | – | A (A>3) | – | 500 to 5000 nM | 500 to 5000 nM | – | > 1.5

The next lines start with results.

Row | EC50 [1, 3] | Enzymatic Emax [1] | EC50 [2, 4] | EC50 [1, 5] | EC50 [2, 6] | SMILES | maximal fold induction [2, 4] | maximal fold induction [2, 6]
16 | < 500 nM | A (A>3) | < 500 nM | – | – | N#Cc1ccc(Br)c(CC2c3ccccc3C(=O)N2Cc2ccc3[nH]c(=O)oc3c2)n1 (stereo not shown) [Compound 221, 5-bromo-6-((3-oxo-2-((2-oxo-2,3-dihydrobenzo[d]oxazol-6-yl)methyl)isoindolin-1-yl)methyl)picolinonitrile] | > 1.5 | –
17 | 500 to 5000 nM | A (A>3) | 500 to 5000 nM | – | – | O=C1c2ccccc2C(Cc2ccccc2OC(F)F)N1Cc1ccc2[nH]c(=O)oc2c1 (stereo not shown) [Compound 210, 6-((1-(2-(difluoromethoxy)benzyl)-3-oxoisoindolin-2-yl)methyl)benzo[d]oxazol-2(3H)-one] | > 1.5 | –
18 | – | A (A>3) | – | < 500 nM | < 500 nM | Cn1c(=O)oc2cc(CN3C(=O)c4ccccc4C3Cc3c(Br)cccc3C#N)ccc21 (stereo not shown) [Compound 552, 3-bromo-2-((2-((3-methyl-2-oxo-2,3-dihydrobenzo[d]oxazol-6-yl)methyl)-3-oxoisoindolin-1-yl)methyl)benzonitrile] | – | > 1.5
19 | – | A (A>3) | – | 500 to 5000 nM | < 500 nM | [2H]C([2H])([2H])Oc1ccc(CN2C(=O)c3ccccc3C2Cc2c(C)ccnc2C#N)cc1 (stereo not shown) [Compound 583, 3-((2-(4-(methoxy-d3)benzyl)-3-oxoisoindolin-1-yl)methyl)-4-methylpicolinonitrile] | – | > 1.5
20 | < 500 nM | B (3≥B>2) | < 500 nM | – | – | O=C1c2ccccc2C(Cc2ncccc2Br)N1Cc1ccc2[nH]ncc2c1 (stereo not shown) [Compound 240, 2-((1H-indazol-5-yl)methyl)-3-((3-bromopyridin-2-yl)methyl)isoindolin-1-one] | 1.2 to 1.5 | –
21 | – | A (A>3) | – | < 500 nM | < 500 nM | O=C1c2ccccc2C(Cc2ncccc2Br)N1Cc1ccc2[nH]nnc2c1 (stereo not shown) [Compound 331, 2-((1H-benzo[d][1,2,3]triazol-5-yl)methyl)-3-((3-bromopyridin-2-yl)methyl)isoindolin-1-one] | – | > 1.5
22 | 500 to 5000 nM | B (3≥B>2) | 500 to 5000 nM | – | – | CC1c2cc(Cc3ccccc3)ccc2C(=O)N1Cc1ccc2[nH]c(=O)oc2c1 (stereo not shown) [Compound 113, 6-((5-benzyl-3-methyl-1-oxoisoindolin-2-yl)methyl)benzo[d]oxazol-2(3H)-one] | 1.2 to 1.5 | –
23 | < 500 nM | B (3≥B>2) | < 500 nM | – | – | N#Cc1cccc(Cl)c1CC1c2ccccc2C(=O)N1Cc1ccc2[nH]c(=O)oc2c1 (stereo not shown) [Compound 190, 3-chloro-2-((3-oxo-2-((2-oxo-2,3-dihydrobenzo[d]oxazol-6-yl)methyl)isoindolin-1-yl)methyl)benzonitrile] | > 1.5 | –
24 | 500 to 5000 nM | A (A>3) | 500 to 5000 nM | – | – | O=C1c2ccccc2C(CC2=CCOCC2)N1Cc1ccc2[nH]c(=O)oc2c1 (stereo not shown) [Compound 225, 6-((1-((3,6-dihydro-2H-pyran-4-yl)methyl)-3-oxoisoindolin-2-yl)methyl)benzo[d]oxazol-2(3H)-one] | > 1.5 | –
25 | – | B (3≥B>2) | – | 500 to 5000 nM | < 500 nM | COc1ccc(CN2C(=O)c3ccccc3C2Cc2ncccc2Br)cc1 (stereo not shown) [Compound 415, 3-((3-bromopyridin-2-yl)methyl)-2-(4-methoxybenzyl)isoindolin-1-one] | – | 1.2 to 1.5
